In patent US20240300944A1, “NOVEL UREA DERIVATIVE COMPOUND AS RON INHIBITOR” (LG CHEM, LTD., priority 2021, published 2024):

What was measured:
cMET = cMET (Homo sapiens, UniProt P08581); test: Inhibitory activity against MET (cMET), TR-FRET kinase assay; assay type: biochemical; settings: cMET enzyme
Experimental: In addition, in order to measure the enzyme activity inhibition for cMET, the evaluation was performed in the same manner as the enzyme activity inhibition measurement experiment for the RON.
(§1) Specifically, the compound was prepared to a concentration of 1 mM with 100% DMSO and was diluted 10 times in a stepwise manner through 3-fold dilution. 2 ul of the compound diluted in a stepwise manner was added to a 96-well-plate containing 48 ul of a 1× kinase reaction buffer (50 mM HEPES (pH 7.4), 0.05% BSA, 0.005% Tween-20, 1 mM DTT, 0.5 mM MnCl2, 20 mM MgCl2).
The cMET protein was diluted to a concentration of 263 nM with a cMET storage buffer (50 mM Tris-HCl (pH 7.5), 150 mM NaCl, 0.05% Brij35, 1 mM DTT, 10% Glycerol), and then diluted again to a concentration of 2 nM with a 1× kinase reaction buffer. As a substrate cocktail, a MET-specific substrate mixture (5 uM TK peptide, […]) at a concentration 2 times the final reaction concentration.
Thereafter, a 384-well-plate was prepared, and 2.5 μl of each of the diluted compounds of Examples was added to a corresponding well of experimental group wells, and 2.5 μl of a 4% DMSO solution was dispensed into high control wells and low control wells.
(§2) Thereafter, 2.5 μL of 2 nM cMET was dispensed into the high control wells and the experimental group wells, and 2.5 μL of a 1× kinase reaction buffer was added to the low control wells, and the […] and the reaction buffer were centrifuged at room temperature for 40 seconds at 1000 RPM, and then incubated at room temperature for 20 to 30 minutes. Then, 5 μL of a substrate cocktail (2×) was dispensed into all wells, centrifuged at room temperature for 40 seconds at 1000 RPM, and then incubated at room temperature for 60 minutes. Thereafter, 5 μL of 90 mM EDTA was added to all wells to terminate the reaction, and then incubated again at room temperature for 5 minutes. Thereafter, 5 μL of a 4× phosphotyrosine antibody (Perkin Elmer) containing europium was added to all wells, and then incubated at room temperature for 60 minutes. After the incubation, the 384-well-plate was read with a Vison plate reader. At this time, the excitation wavelength was 340 nm, and the emission wavelength was 620 nm and 665 nm. The IC50 value of the compound of each Example was derived using the GraphPd Prism7 program.

RON = RON (Homo sapiens, UniProt Q04912); test: Inhibitory activity against RON, TR-FRET kinase assay; assay type: biochemical; settings: RON enzyme
Experimental: In order to measure the inhibitory activity of each of the compounds of Examples against RON, the IC50 of each of the compounds was measured using a Time-Resolved Fluorescence Energy Transfer Chemistry (TR-FRET).
as §1, with “7.4), 0.01%” for “7.4), 0.05% BSA, 0.005%”, “Tween-20, 5” for “Tween-20, 1”, “mM Na3VO4, 2 mM EGTA, 10” for “mM MnCl2, 20”
The RON protein was diluted to a concentration of 49.3 nM with an RON storage buffer (50 mM Tris-HCl (pH 7.5), 150 mM NaCl, 0.5 mM EDTA, 0.02% Triton X-100), and then diluted again to a concentration of 0.4 nM with a 1× kinase reaction buffer. As a substrate cocktail, a RON-specific substrate mixture (40 uM ULight-labeled Poly GT, 100 nM ATP) at a concentration 2 times the final reaction concentration.
Thereafter, a 384-well-plate was prepared, and 2.5 ul of each of the diluted compounds of Examples was added to a corresponding well of experimental group wells, and 2.5 ul of a 4% DMSO solution was dispensed into high control wells and low control wells.
as §2, with “of 0.4” for “of 2”, “nM RON” for “nM cMET”, “of 30” for “of 90”

cMET, sequence (P08581 25-1390): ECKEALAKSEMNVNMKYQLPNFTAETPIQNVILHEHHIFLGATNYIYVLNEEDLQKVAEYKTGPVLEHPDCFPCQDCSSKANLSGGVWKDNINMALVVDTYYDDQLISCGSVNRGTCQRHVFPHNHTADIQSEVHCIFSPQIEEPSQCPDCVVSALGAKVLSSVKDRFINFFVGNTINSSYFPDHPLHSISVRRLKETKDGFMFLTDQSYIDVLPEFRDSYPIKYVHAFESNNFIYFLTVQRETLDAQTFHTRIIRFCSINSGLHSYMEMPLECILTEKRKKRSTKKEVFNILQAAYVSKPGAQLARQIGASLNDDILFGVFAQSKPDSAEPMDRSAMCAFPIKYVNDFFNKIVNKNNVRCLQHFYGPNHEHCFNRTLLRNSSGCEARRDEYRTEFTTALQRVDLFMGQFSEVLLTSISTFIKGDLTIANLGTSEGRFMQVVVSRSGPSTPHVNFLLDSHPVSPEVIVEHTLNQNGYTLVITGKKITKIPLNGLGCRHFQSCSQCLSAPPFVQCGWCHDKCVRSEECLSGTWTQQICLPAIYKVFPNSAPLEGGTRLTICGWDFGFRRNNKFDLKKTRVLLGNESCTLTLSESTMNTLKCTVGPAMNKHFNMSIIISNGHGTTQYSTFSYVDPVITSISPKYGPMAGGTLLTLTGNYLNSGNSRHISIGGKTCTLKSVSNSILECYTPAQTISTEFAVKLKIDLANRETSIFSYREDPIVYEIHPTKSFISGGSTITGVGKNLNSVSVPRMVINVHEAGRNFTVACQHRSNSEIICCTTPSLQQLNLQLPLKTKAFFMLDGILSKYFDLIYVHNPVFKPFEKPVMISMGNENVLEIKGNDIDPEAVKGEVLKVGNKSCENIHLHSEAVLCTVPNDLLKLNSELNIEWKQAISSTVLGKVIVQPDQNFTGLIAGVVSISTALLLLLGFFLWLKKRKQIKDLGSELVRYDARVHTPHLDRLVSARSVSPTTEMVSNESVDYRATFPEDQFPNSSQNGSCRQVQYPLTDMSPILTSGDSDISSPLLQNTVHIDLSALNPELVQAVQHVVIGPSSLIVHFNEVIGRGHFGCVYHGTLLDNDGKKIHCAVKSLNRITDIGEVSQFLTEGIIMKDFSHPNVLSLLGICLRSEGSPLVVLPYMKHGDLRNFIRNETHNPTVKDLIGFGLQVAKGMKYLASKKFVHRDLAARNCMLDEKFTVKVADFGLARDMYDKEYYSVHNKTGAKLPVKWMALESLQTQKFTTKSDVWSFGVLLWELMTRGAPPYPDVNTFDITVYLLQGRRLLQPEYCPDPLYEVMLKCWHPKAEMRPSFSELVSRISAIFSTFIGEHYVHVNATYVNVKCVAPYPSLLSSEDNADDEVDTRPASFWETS
RON, sequence (Q04912 25-1400, species assumed): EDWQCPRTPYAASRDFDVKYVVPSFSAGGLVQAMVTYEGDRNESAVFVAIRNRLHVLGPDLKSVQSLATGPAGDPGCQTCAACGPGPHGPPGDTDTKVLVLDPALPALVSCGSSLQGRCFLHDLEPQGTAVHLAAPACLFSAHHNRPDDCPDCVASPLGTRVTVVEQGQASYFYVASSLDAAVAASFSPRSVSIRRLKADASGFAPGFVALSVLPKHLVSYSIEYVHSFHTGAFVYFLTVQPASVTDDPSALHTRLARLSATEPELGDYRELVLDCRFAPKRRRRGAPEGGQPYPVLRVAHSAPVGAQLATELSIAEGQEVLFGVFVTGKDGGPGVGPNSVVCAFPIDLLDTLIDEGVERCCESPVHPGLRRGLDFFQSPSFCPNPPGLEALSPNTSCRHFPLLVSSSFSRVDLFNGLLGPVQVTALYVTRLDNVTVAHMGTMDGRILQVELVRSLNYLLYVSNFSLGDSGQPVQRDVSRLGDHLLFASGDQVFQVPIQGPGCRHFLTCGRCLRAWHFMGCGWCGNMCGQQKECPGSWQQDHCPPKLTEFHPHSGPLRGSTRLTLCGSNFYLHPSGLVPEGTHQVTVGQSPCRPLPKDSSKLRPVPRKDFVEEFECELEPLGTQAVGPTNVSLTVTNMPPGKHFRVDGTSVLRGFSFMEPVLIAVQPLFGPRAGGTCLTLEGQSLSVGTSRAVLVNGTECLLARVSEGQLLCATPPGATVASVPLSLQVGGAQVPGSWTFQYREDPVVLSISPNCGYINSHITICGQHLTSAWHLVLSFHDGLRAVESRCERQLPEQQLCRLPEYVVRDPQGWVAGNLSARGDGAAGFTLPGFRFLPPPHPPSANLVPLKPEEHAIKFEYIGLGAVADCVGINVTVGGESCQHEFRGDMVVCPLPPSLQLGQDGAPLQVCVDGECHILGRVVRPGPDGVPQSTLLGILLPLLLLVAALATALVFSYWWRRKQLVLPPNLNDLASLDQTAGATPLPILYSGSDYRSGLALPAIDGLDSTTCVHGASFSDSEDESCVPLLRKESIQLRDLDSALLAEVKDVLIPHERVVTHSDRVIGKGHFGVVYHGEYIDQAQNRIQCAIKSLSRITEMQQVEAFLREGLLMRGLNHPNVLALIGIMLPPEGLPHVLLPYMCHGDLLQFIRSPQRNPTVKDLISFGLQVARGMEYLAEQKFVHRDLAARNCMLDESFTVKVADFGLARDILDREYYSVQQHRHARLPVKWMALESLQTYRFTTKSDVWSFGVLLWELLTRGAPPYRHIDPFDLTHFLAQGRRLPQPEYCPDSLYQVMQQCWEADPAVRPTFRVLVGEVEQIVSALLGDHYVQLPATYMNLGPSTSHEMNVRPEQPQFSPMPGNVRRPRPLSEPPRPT

Row | Structure (SMILES) | IC50 (cMET) [nM] | IC50 (RON) [nM]
1 | O=C(Nc1ccc(Oc2ccnc3[nH]c(=O)[nH]c23)c(F)c1)c1ncn(-c2ccccc2)c1C(F)(F)F [Example 1, N-(3-fluoro-4-((2-oxo-2,3-dihydro-1H-imidazo[4,5-b]pyridine-7-yl)oxy)phenyl)-1-phenyl-5-(trifluoromethyl)-1H-imidazole-4-carboxamide] | > 5000 | < 50
2 | O=C(Nc1ccc(Oc2ccnc3[nH]c(=O)[nH]c23)c(F)c1)c1cnn(-c2ccccc2)c1C(F)(F)F [Example 2, N-(3-fluoro-4-((2-oxo-2,3-dihydro-1H-imidazo[4,5-b]pyridine-7-yl)oxy)phenyl)-1-phenyl-5-(trifluoromethyl)-1H-pyrazole-4-carboxamide] | > 5000 | < 50
3 | CCn1c(=O)[nH]c2nccc(Oc3ccc(NC(=O)c4ncn(-c5ccccc5)c4C(F)(F)F)cc3F)c21 [Example 3, N-(4-((1-ethyl-2-oxo-2,3-dihydro-1H-imidazo[4,5-b]pyridine-7-yl)oxy)-3-fluorophenyl)-1-phenyl-5-(trifluoromethyl)-1H-imidazole-4-carboxamide] | > 5000 | < 50
4 | CCn1c(=O)[nH]c2nccc(Oc3ccc(NC(=O)c4cnn(-c5ccccc5)c4C(F)(F)F)cc3F)c21 [Example 4, N-(4-((1-ethyl-2-oxo-2,3-dihydro-1H-imidazo[4,5-b]pyridine-7-yl)oxy)-3-fluorophenyl)-1-phenyl-5-(trifluoromethyl)-1H-pyrazole-4-carboxamide] | > 5000 | < 50
5 | Cn1c(=O)[nH]c2nccc(Oc3ccc(NC(=O)c4ncn(-c5ccccc5)c4C(F)(F)F)cc3F)c21 [Example 5, N-(3-fluoro-4-((1-methyl-2-oxo-2,3-dihydro-1H-imidazo[4,5-b]pyridine-7-yl)oxy)phenyl)-1-phenyl-5-(trifluoromethyl)-1H-imidazole-4-carboxamide] | > 5000 | < 50
6 | Cn1c(=O)[nH]c2nccc(Oc3ccc(NC(=O)c4cnn(-c5ccccc5)c4C(F)(F)F)cc3F)c21 [Example 6, N-(3-fluoro-4-((1-methyl-2-oxo-2,3-dihydro-1H-imidazo[4,5-b]pyridine-7-yl)oxy)phenyl)-1-phenyl-5-(trifluoromethyl)-1H-pyrazole-4-carboxamide] | > 5000 | < 50
7 | CC(C)n1c(=O)[nH]c2nccc(Oc3ccc(NC(=O)c4cnn(-c5ccccc5)c4C(F)(F)F)cc3F)c21 [Example 7, N-(3-fluoro-4-((1-isopropyl-2-oxo-2,3-dihydro-1H-imidazo[4,5-b]pyridine-7-yl)oxy)phenyl)-1-phenyl-5-(trifluoromethyl)-1H-pyrazole-4-carboxamide] | 500 to 5000 | < 50
8 | CC(C)n1c(=O)[nH]c2nccc(Oc3ccc(NC(=O)c4ncn(-c5ccccc5)c4C(F)(F)F)cc3F)c21 [Example 8, N-(3-fluoro-4-((1-isopropyl-2-oxo-2,3-dihydro-1H-imidazo[4,5-b]pyridine-7-yl)oxy)phenyl)-1-phenyl-5-(trifluoromethyl)-1H-imidazole-4-carboxamide] | > 5000 | < 50
9 | CCc1c(C(=O)Nc2ccc(Oc3ccnc4[nH]c(=O)[nH]c34)c(F)c2)cnn1-c1ccccc1 [Example 9, 5-ethyl-N-(3-fluoro-4-((2-oxo-2,3-dihydro-1H-imidazo[4,5-b]pyridine-7-yl)oxy)phenyl)-1-phenyl-1H-pyrazole-4-carboxamide] | > 5000 | 50 to 500
10 | CCc1c(C(=O)Nc2ccc(Oc3ccnc4[nH]c(=O)n(C(C)C)c34)c(F)c2)cnn1-c1ccccc1 [Example 10, 5-ethyl-N-(3-fluoro-4-((1-isopropyl-2-oxo-2,3-dihydro-1H-imidazo[4,5-b]pyridine-7-yl)oxy)phenyl)-1-phenyl-1H-pyrazole-4-carboxamide] | 500 to 5000 | < 50
11 | O=C(Nc1ccc(Oc2ccnc3[nH]c(=O)n(C4CCOCC4)c23)c(F)c1)c1ncn(-c2ccccc2)c1C(F)(F)F [Example 11, N-(3-fluoro-4-((2-oxo-1-(tetrahydro-2H-pyran-4-yl)-2,3-dihydro-1H-imidazo[4,5-b]pyridine-7-yl)oxy)phenyl)-1-phenyl-5-(trifluoromethyl)-1H-imidazole-4-carboxamide] | > 5000 | < 50
12 | Cc1nn(-c2ccccc2)c(C)c1C(=O)Nc1ccc(Oc2ccnc3[nH]c(=O)[nH]c23)c(F)c1 [Example 12, N-(3-fluoro-4-((2-oxo-2,3-dihydro-1H-imidazo[4,5-b]pyridine-7-yl)oxy)phenyl)-3,5-dimethyl-1-phenyl-1H-pyrazole-4-carboxamide] | > 5000 | 50 to 500
13 | Cc1nn(-c2ccccc2)c(C)c1C(=O)Nc1ccc(Oc2ccnc3[nH]c(=O)n(C(C)C)c23)c(F)c1 [Example 13, N-(3-fluoro-4-((1-isopropyl-2-oxo-2,3-dihydro-1H-imidazo[4,5-b]pyridine-7-yl)oxy)phenyl)-3,5-dimethyl-1-phenyl-1H-pyrazole-4-carboxamide] | 50 to 500 | < 50
14 | Cc1c(C(=O)Nc2ccc(Oc3ccnc4[nH]c(=O)n(C(C)C)c34)c(F)c2)cnn1-c1ccccc1 [Example 14, N-(3-fluoro-4-((1-isopropyl-2-oxo-2,3-dihydro-1H-imidazo[4,5-b]pyridine-7-yl)oxy)phenyl)-5-methyl-1-phenyl-1H-pyrazole-4-carboxamide] | 500 to 5000 | < 50
15 | CC(C)n1c(=O)[nH]c2nccc(Oc3ccc(NC(=O)c4cnc(-c5ccccc5)s4)cc3F)c21 [Example 15, N-(3-fluoro-4-((1-isopropyl-2-oxo-2,3-dihydro-1H-imidazo[4,5-b]pyridine-7-yl)oxy)phenyl)-2-phenylthiazole-5-carboxamide] | > 5000 | 50 to 500
16 | CC(C)n1c(=O)[nH]c2nccc(Oc3ccc(NC(=O)c4ncc(-c5ccccc5)s4)cc3F)c21 [Example 16, N-(3-fluoro-4-((1-isopropyl-2-oxo-2,3-dihydro-1H-imidazo[4,5-b]pyridine-7-yl)oxy)phenyl)-5-phenylthiazole-2-carboxamide] | > 5000 | 50 to 500
17 | Cc1ccc(-n2ncc(C(=O)Nc3ccc(Oc4ccnc5[nH]c(=O)n(C(C)C)c45)c(F)c3)c2C(F)(F)F)cc1 [Example 17, N-(3-fluoro-4-((1-isopropyl-2-oxo-2,3-dihydro-1H-imidazo[4,5-b]pyridine-7-yl)oxy)phenyl)-1-(p-tolyl)-5-(trifluoromethyl)-1H-pyrazole-4-carboxamide] | > 5000 | 50 to 500
18 | COc1ccccc1-n1ncc(C(=O)Nc2ccc(Oc3ccnc4[nH]c(=O)n(C(C)C)c34)c(F)c2)c1C(F)(F)F [Example 18, N-(3-fluoro-4-((1-isopropyl-2-oxo-2,3-dihydro-1H-imidazo[4,5-b]pyridine-7-yl)oxy)phenyl)-1-(2-methoxyphenyl)-5-(trifluoromethyl)-1H-pyrazole-4-carboxamide] | 500 to 5000 | 50 to 500
